Laboratory results: article PMC10610134, “Verubulin (Azixa) Analogues with Increased Saturation: Synthesis, SAR and Encapsulation in Biocompatible Nanocontainers Based on Ca^2+ or Mg^2+ Cross-Linked Alginate” (Pharmaceuticals, 2023)

Legend:
[1] = system: microtubules in carcinoma A549 cells; test: Immunofluorescent microscopy of microtubules; assay type: cell-based, human; details: 24 h, A549
Procedure: Since verubulin is known to stimulate microtubule disassociation, we performed an immunofluorescent microscopy study to determine the response of microtubule dynamics in carcinoma A549 cells to the treatment with representative compounds 2b,c,e. […] Aberrant cell morphology—contraction and rounding (Figure 2A,B) or contraction and elongation (Figure 2C)—was also observed.
A549 cells were seeded on coverslips (treated with poly-l-lysine at a concentration of 33 mg/L for an hour). Compounds were added up to the corresponding concentration after 24 h attachment and growth of the cells. Then, cells were incubated 24 h.
The cells were fixed with methanol (precooled in liquid nitrogen for 20 min), no additional permeabilization was performed. To prevent non-specific binding, cells were incubated with 4% BSA in PBS for one hour. Then, a solution of mouse monoclonal antibodies against alpha-tubulin cross-linked with Alexa 488 fluoroform (Thermo Fisher Scientific, Waltham, MA, USA, 32-2588) at a concentration of 5 μg/mL in 1% BSA solution in PBS was added to the cells, and the slides were incubated at +5 °C in a water chamber for 24 h. After the end of the incubation time, the cells were washed several times with PBS buffer solution and fixed on a glass slide with Moviol. Next day, cells were imaged with a ZEISS LSM 900 (ZEISS Microscopy, GmbH, Germany) and images processed with ImageJ.

[2] = system: HCT116 cell line; test: MTT cytotoxicity towards HCT116; assay type: cell-based, human; details: HCT-116; HCT116, human colon carcinoma; read-out: IC50
[3] = system: A549 cell line; test: MTT assay of nanocontainer formulations, A549; assay type: cell-based; details: Homo sapiens, 48 h treatment, 2c concentration in formulations = 0.1 × COO− concentration
Procedure: (§1) The MTT assay was carried out on the A549 cell line and non-tumor hTERT-immortalized human fibroblasts for 48 h (Table 2; for cell survival curves, see Supplementary Materials).
(§2) Lung adenocarcinoma A549, breast adenocarcinoma MDA-MB-231 and non-tumor fibroblasts immortalized with h-TERT cell lines were obtained from the American Type Culture Collection (Manassas, VA, USA). Cells were routinely propagated in Dulbecco’s modified Eagle’s medium (DMEM) supplemented with 10% fetal bovine serum (HyClone, Logan, UT, USA), 2 mM L-glutamine, 100 U/mL penicillin and 100 μg/mL streptomycin (PanEco, Moscow, Russia) at 37 °C, 5% CO2 in a humidified atmosphere. Cells in the logarithmic phase of growth were used in the experiments.
(§3) The cytotoxicity of compounds for human cell lines (A549, MDA-MB-231, non-tumor fibroblasts) was assessed in MTT assays. […]
(§4) Cytotoxicity was assessed in a formazan conversion assay (MTT test) after a 48 h exposure. After the completion of drug exposure, 0.5 mg/mL 3-(4,5-dimethylthiazol-2-yl)-2,5-diphenyltetrazolium bromide (MTT reagent) was added to cells for 2 h, the culture medium was removed, cells were resuspended in 100 μL DMSO and the optical densities were measured on a Multiscan FC plate spectrophotometer (Thermo Fisher Scientific, Waltham, MA, USA) at a wavelength of 571 nm. […]

[4] = system: hTERT-immortalized human fibroblasts; test: MTT assay of nanocontainer formulations, fibroblasts; assay type: cell-based; details: Fibroblast, 48 h treatment, 2c concentration in formulations = 0.1 × COO− concentration
Procedure: as §1, §2, §3, §4

## COc1ccc(N(C)c2nc(C)nc3c2CCCC3)cc1 [Compound 2c, N-(4-methoxyphenyl)-N,2-dimethyl-5,6,7,8-tetrahydroquinazolin-4-amine]
[1]; 10 μM
  effect on microtubules (MTs): full depolymerization of MTs
[1]; 5–10 μM
  effect on microtubules: pronounced or complete disruption of microtubules
[2]
  IC50: 0.2 ± 0.01 nM
[3]
  IC50: 0.6 ± 0.06 µM
[4]
  IC50: 4.2 ± 0.3 µM
